According to PubChem BioAssay AID1963862 (Molecular Pharmacology Branch, DTP, NCI, 2024):

Test system: KRAS patient-derived spheroids with HUVEC/MSC, viability
Assay: Anticancer human tumor 941728-121-R-J1-PDC patient-derived lung adenocarcinoma cell line growth inhibition [KRAS2]
Conditions: for IC50: curve of first compound; for viability, T/C: stronger effect = lower value
Method in brief: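 Combination screen of spheroid viability in tumor-cell co-cultures with endothelial (HUVEC) and mesenchymal stem cell stroma. Each agent was tested in half-log dilutions, topping at clinical Cmax or at 10 microM without a known Cmax.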

[1] = second compound 0.1 µM, first compound 0.0316 µM
[2] = second compound 0.1 µM, first compound 0.1 µM
[3] = second compound 0.1 µM, first compound 0.316 µM
[4] = second compound 0.1 µM, first compound 1 µM
[5] = second compound 0.1 µM, first compound 3.16 µM
[6] = second compound 0.316 µM, first compound 0.0316 µM
[7] = second compound 0.316 µM, first compound 0.1 µM
[8] = second compound 0.316 µM, first compound 0.316 µM
[9] = second compound 0.316 µM, first compound 1 µM
[10] = second compound 0.316 µM, first compound 3.16 µM
[11] = second compound 1 µM, first compound 0.0316 µM
[12] = second compound 1 µM, first compound 0.1 µM
[13] = second compound 1 µM, first compound 0.316 µM
[14] = second compound 1 µM, first compound 1 µM
[15] = second compound 1 µM, first compound 3.16 µM
[16] = second compound 3.16 µM, first compound 0.0316 µM
[17] = second compound 3.16 µM, first compound 0.1 µM
[18] = second compound 3.16 µM, first compound 0.316 µM
[19] = second compound 3.16 µM, first compound 1 µM
[20] = second compound 3.16 µM, first compound 3.16 µM
[21] = second compound 10 µM, first compound 0.0316 µM
[22] = second compound 10 µM, first compound 0.1 µM
[23] = second compound 10 µM, first compound 0.316 µM
[24] = second compound 10 µM, first compound 1 µM
[25] = second compound 10 µM, first compound 3.16 µM
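Further: spheroids exposed to agents for seven days before readout.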

## CC1COCCN1c1cc(-c2ccnn2C)c2ccnc(-c3ccn[nH]3)c2n1 (stereo not given) + C=CC(=O)N1CCN(c2nc(=O)n(-c3c(C)ccnc3C(C)C)c3nc(-c4c(O)cccc4F)c(F)cc23)C(C)C1
Second compound 0.1 µM
  IC50: < 10 nM
Second compound 0.316 µM
  IC50: < 10 nM
Second compound 1 µM
  IC50: < 10 nM
Second compound 3.16 µM
  IC50: < 10 nM
Second compound 10 µM
  IC50: < 10 nM
Second compound 0.1 µM, first compound 0.01 µM
  viability, T/C: 23.9%
[1]
  viability, T/C: 20.3%
[2]
  viability, T/C: 18.5%
[3]
  viability, T/C: 16.3%
[4]
  viability, T/C: 13.1%
[5]
  viability, T/C: 10.7%
Second compound 0.316 µM, first compound 0.01 µM
  viability, T/C: 23.6%
[6]
  viability, T/C: 23.2%
[7]
  viability, T/C: 19.2%
[8]
  viability, T/C: 19.1%
[9]
  viability, T/C: 13.5%
[10]
  viability, T/C: 10.5%
Second compound 1 µM, first compound 0.01 µM
  viability, T/C: 25.1%
[11]
  viability, T/C: 24.6%
[12]
  viability, T/C: 21%
[13]
  viability, T/C: 17.5%
[14]
  viability, T/C: 14.1%
[15]
  viability, T/C: 14%
Second compound 3.16 µM, first compound 0.01 µM
  viability, T/C: 26.2%
[16]
  viability, T/C: 27.1%
[17]
  viability, T/C: 24.2%
[18]
  viability, T/C: 21.2%
[19]
  viability, T/C: 20.1%
[20]
  viability, T/C: 16.5%
Second compound 10 µM, first compound 0.01 µM
  viability, T/C: 33.3%
[21]
  viability, T/C: 34.8%
[22]
  viability, T/C: 31.9%
[23]
  viability, T/C: 28.4%
[24]
  viability, T/C: 25.4%
[25]
  viability, T/C: 30.5%

## CCNC(=O)CC1N=C(c2ccc(Cl)cc2)c2cc(OC)ccc2-n2c(C)nnc21 (stereo not given) + C=CC(=O)N1CCN(c2nc(=O)n(-c3c(C)ccnc3C(C)C)c3nc(-c4c(O)cccc4F)c(F)cc23)C(C)C1
Second compound 0.1 µM
  IC50: < 31.6 nM
Second compound 0.316 µM
  IC50: < 31.6 nM
Second compound 1 µM
  IC50: < 31.6 nM
Second compound 3.16 µM
  IC50: < 31.6 nM
Second compound 10 µM
  IC50: < 31.6 nM
[1]
  viability, T/C: 25.4%
[2]
  viability, T/C: 27%
[3]
  viability, T/C: 21.2%
[4]
  viability, T/C: 14.3%
[5]
  viability, T/C: 11.7%
Second compound 0.1 µM, first compound 10 µM
  viability, T/C: 10.8%
[6]
  viability, T/C: 27.4%
[7]
  viability, T/C: 23.8%
[8]
  viability, T/C: 20.4%
[9]
  viability, T/C: 14.7%
[10]
  viability, T/C: 13%
Second compound 0.316 µM, first compound 10 µM
  viability, T/C: 10.3%
[11]
  viability, T/C: 28.9%
[12]
  viability, T/C: 28.7%
[13]
  viability, T/C: 21.7%
[14]
  viability, T/C: 16.2%
[15]
  viability, T/C: 14%
Second compound 1 µM, first compound 10 µM
  viability, T/C: 10.7%
[16]
  viability, T/C: 30.4%
[17]
  viability, T/C: 28%
[18]
  viability, T/C: 22.5%
[19]
  viability, T/C: 18.3%
[20]
  viability, T/C: 11.6%
Second compound 3.16 µM, first compound 10 µM
  viability, T/C: 8.77%
[21]
  viability, T/C: 34.1%
[22]
  viability, T/C: 31.6%
[23]
  viability, T/C: 23.4%
[24]
  viability, T/C: 15.1%
[25]
  viability, T/C: 11%
Second compound 10 µM, first compound 10 µM
  viability, T/C: 8.28%
